Tests used:
[1] = system: human and rat GPR-14; experiment: Radioligand binding ([125I] h-U-II, HEK-293 cell membranes); conditions: [125I] h-U-II binding to HEK-293 membranes with cloned GPR-14; species not given
Method: HEK-293 cell membranes containing stable cloned human and rat GPR-14 (20 ug/assay) were incubated with 200 pM [125I] h-U-II (200 Ci/mmol^−1 in the presence of increasing concentrations of test compounds in DMSO (0.1 nM to 10 uM), in a final incubation volume of 200 ul (20 mM Tris-HCl, 5 mM MgCl2). Incubation was done for 30 minutes at room temperature followed by filtration GF/B filters with Brandel cell harvester. ^125I labeled U-II binding was quantitated by gamma counting. Nonspecific binding was defined by ^125I U-II binding in the presence of 100 nM of unlabeled human U-II. Analysis of the data was performed by nonlinear least square fitting.

[2] = system: rat-isolated aorta; conditions: cited from earlier work

For `CN(C)CCCOc1ccc(CN2CC[C@H](NC(=O)[C@H](Cc3ccccc3)NC(=O)c3ccc(Br)cc3)C2)cc1` [Example 15], the Ki [1] was 390 nM.

In the case of `CC(C)[C@H](NC(=O)[C@@H]1CSSC[C@H](NC(=O)[C@H](CC(=O)O)NC(=O)[C@@H]2CCCN2C(=O)[C@@H](NC(=O)[C@@H](N)CCC(=O)O)[C@@H](C)O)C(=O)N[C@@H](Cc2ccccc2)C(=O)N[C@@H](Cc2c[nH]c3ccccc23)C(=O)N[C@@H](CCCCN)C(=O)N[C@@H](Cc2ccc(O)cc2)C(=O)N1)C(=O)O` [Human Urotensin-II], the contractile activity [2] is given as “most potent contractile agonist identified to date”.
